No end group written: not given here.
Experiments:
[1] = molecular target: T1, intestinal GC-C receptor (Homo sapiens, UniProt P25092); experiment: Intestinal GC-C receptor activity assay (cyclic GMP by EIA in T84 cells); assay type: cell-based; conditions: chemically synthesized peptides, FIG. 2
T1 construct: host or cells: T84 human colon carcinoma cells
Method: The ability of SEQ ID NO:5, SEQ ID NO:4, and SEQ ID NO:3 to activate the intestinal GC-C receptor was assessed in an assay employing the T84 human colon carcinoma cell line (American Type Culture Collection (Bethesda, Md.)). For the assays cells were grown to confluency in 24-well culture plates with a 1:1 mixture of Ham's F12 medium and Dulbecco's modified Eagle's medium (DMEM), supplemented with 5% fetal calf serum and were used at between passages 54 and 60.
Briefly, monolayers of T84 cells in 24-well plates were washed twice with 1 ml/well DMEM, then incubated at 37° C. for 10 min with 0.45 ml DMEM containing 1 mM isobutylmethylxanthine (IBMX), a cyclic nucleotide phosphodiesterase inhibitor. Test peptides (50 μl) were then added and incubated for 30 minutes at 37° C. The media was aspirated and the reaction was then terminated by the addition of ice cold 0.5 ml of 0.1N HCl. The samples were held on ice for 20 minutes and then evaporated to dryness using a heat gun or vacuum centrifugation. The dried samples were resuspended in 0.5 ml of phosphate buffer provided in the Cayman Chemical Cyclic GMP EIA kit (Cayman Chemical, Ann Arbor, Mich.). Cyclic GMP was measured by EIA according to procedures outlined in the Cayman Chemical Cyclic GMP EIA kit.

[2] = system: gastrointestinal transit; experiment: Murine gastrointestinal transit (GIT) assay, charcoal front; assay type: in vivo, mice; conditions: for gastrointestinal transit rate: SEQ ID NO:4 and Zelnorm 0.1 mg/kg, FIG. 3a/3b; for intestinal transit rate versus dosage: recombinantly synthesized peptides, FIG. 4a
Method: In order to determine whether the peptides increase the rate of gastrointestinal transit, the peptides and controls were tested using a murine gastrointestinal transit (GIT) assay (Moon et al. Infection and Immunity 25:127, 1979). In this assay, charcoal, which can be readily visualized in the gastrointestinal tract is administered to mice after the administration of a test compound. The distance traveled by the charcoal is measured and expressed as a percentage of the total length of the […].
Mice were fasted with free access to water for 12 to 16 hours before the treatment with peptide or control buffer. The peptides were orally administered at 1 μg/kg-1 mg/kg of peptide in buffer (20 mM Tris pH 7.5) 7 minutes before being given an oral dose of 5% Activated Carbon (Aldrich 242276-250G). Control mice were administered buffer only before being given a dose of Activated Carbon. After 15 minutes, the mice were sacrificed and their intestines from the stomach to the cecum were dissected. The total length of the intestine as well as the distance traveled from the stomach to the charcoal front was measured for each animal and the results are expressed as the percent of the total length of the intestine traveled by the charcoal front. All results are reported as the average of 10 mice±standard deviation. A comparison of the distance traveled by the charcoal between the mice treated with peptide versus the mice treated with vehicle alone was performed using a Student's t test and a statistically significant difference was considered for P<0.05. P-values are calculated using a two-sided T-Test assuming unequal variances.
The identical experiment was performed to determine if SEQ ID NO:3 is effective in a chronic dosing treatment regimen. Briefly, 8 week old CD1 female mice are dosed orally once a day for 5 days with either SEQ ID NO:3 (0.06 mg/kg or 0.25 mg/kg in 20 mM Tris pH 7.5) or vehicle alone (20 mM Tris pH 7.5). On the 5th day, a GIT assay is performed identical to that above except 200 μl of a 10% charcoal solution is administered. […] The results are shown side by side with acute dosing (1 day).

[3] = system: intestinal secretion; experiment: Suckling mouse model of intestinal secretion (SuMi assay); assay type: in vivo; conditions: suckling mice
Method: In this model a test compound is administered to suckling mice that are between 7 and 9 days old. After the mice are sacrificed, the gastrointestinal tract from the stomach to the cecum is dissected (“guts”). The remains (“carcass”) as well as the guts are weighed and the ratio of guts to carcass weight is calculated. If the ratio is above 0.09, one can conclude that the test compound increases intestinal secretion. […] The effect of Zelnorm® was also studied.

[4] = molecular target: T2, GC-C receptors found in rat intestinal mucosa (Rattus norvegicus, UniProt P23897); set-up: Intestinal mucosa was extruded from the intestine by gentle pressure; from tissue; host or cells: rat small-intestinal epithelial cells (mucosa), used as a cell suspension; conditions: same assay, observed by Giannella et al.; cited from earlier work
T2 sequence (P23897 23-1072): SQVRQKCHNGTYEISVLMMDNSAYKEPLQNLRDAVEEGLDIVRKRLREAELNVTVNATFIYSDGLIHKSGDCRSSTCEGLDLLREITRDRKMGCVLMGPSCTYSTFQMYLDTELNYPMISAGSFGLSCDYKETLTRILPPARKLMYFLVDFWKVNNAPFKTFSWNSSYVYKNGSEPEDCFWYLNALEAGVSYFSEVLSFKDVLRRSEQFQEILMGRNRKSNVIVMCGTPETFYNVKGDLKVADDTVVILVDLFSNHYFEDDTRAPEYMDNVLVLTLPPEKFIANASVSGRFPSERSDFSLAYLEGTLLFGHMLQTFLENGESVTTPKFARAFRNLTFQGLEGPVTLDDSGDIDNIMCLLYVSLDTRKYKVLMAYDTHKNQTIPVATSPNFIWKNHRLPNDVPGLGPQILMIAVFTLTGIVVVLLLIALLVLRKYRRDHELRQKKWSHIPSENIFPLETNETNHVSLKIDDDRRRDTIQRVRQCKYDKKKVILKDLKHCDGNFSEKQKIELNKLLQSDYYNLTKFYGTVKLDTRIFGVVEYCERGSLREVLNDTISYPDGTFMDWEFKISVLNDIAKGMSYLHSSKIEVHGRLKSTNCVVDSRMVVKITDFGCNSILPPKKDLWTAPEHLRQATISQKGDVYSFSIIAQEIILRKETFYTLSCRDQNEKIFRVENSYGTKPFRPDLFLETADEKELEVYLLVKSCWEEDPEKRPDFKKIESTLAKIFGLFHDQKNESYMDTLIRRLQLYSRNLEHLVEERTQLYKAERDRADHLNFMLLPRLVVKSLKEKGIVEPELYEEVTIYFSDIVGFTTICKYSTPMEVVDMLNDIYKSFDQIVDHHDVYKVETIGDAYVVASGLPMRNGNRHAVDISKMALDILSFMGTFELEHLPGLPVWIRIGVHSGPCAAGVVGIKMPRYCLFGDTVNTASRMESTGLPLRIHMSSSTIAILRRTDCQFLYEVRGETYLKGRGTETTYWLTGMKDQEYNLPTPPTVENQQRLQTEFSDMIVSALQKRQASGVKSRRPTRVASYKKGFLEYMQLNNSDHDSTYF

[5] = system: PBQ-induced writhing; experiment: Phenylbenzoquinone (PBQ)-induced writhing model
[6] = recombinant peptides, dose response, FIG. 6a

T1 sequence (P25092 24-1073): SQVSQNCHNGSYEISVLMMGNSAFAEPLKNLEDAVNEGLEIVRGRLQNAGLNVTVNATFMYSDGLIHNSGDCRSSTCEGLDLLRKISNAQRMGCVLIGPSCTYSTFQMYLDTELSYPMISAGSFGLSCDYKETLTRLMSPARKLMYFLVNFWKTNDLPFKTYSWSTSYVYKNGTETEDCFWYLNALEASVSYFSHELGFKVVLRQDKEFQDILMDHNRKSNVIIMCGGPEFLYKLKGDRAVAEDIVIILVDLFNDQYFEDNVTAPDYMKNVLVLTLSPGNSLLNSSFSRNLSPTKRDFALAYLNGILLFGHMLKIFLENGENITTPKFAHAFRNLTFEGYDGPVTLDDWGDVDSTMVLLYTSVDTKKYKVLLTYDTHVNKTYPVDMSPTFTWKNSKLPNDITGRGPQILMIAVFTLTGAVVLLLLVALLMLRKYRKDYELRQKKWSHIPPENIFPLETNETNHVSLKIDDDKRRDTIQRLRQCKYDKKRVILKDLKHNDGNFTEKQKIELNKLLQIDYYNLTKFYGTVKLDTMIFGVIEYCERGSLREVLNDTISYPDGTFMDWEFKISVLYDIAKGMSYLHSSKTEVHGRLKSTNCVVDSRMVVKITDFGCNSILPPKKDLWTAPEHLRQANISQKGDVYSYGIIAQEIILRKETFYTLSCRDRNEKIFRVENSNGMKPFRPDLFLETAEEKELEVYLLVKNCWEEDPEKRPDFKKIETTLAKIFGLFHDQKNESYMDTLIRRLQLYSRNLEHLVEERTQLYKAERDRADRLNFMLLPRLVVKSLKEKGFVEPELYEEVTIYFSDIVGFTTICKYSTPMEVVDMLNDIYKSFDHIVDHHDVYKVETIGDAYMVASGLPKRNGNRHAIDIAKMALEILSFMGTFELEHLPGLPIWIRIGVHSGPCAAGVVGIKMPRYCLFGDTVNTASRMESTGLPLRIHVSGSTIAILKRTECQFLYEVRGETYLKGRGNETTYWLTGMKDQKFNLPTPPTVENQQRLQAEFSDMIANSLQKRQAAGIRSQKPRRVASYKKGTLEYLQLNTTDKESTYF

| Compound | activity in GC-C receptor activity assay [1] | gastrointestinal transit rate ([2]; acute, oral, mice) | intestinal transit rate versus Tris buffer or equivalent dose of Zelnorm ([2]; acute, oral, mice, chemically synthesized peptides, FIG. 4b) | intestinal transit rate versus dosage ([2]; acute, oral, mice) | intestinal secretion (guts to carcass weight ratio) ([3]; dose response, FIG. 5a/5b) | intestinal secretion (guts to carcass weight ratio) [3, 6] | Kd [4] [nM] | antinociceptive effect relative to indomethacin ([5]; mouse PBQ writhing, visceral pain model) | writhings compared to the vehicle control ([5]; mouse, oral, 1 mg/kg dose, FIG. 8a) | effect in mouse gastrointestinal motility assay upon chronic dosing ([2]; oral once a day for 5 days, CD1 female mice, FIG. 4c) | intestinal secretion (guts to carcass weight ratio) ([3]; 0.2 mg/kg, FIG. 5) |
| --- | --- | --- | --- | --- | --- | --- | --- | --- | --- | --- | --- |
| NSSNYCCELCCNPACTGCY [SEQ ID NO:4, Asn Ser Ser Asn Tyr Cys Cys Glu Leu Cys Cys Asn Pro Ala Cys Thr Gly Cys Tyr] | activity comparable to SEQ ID NO:4 | increase gastrointestinal transit rate | increase intestinal transit rates more than either Tris buffer alone or an equivalent dose of Zelnorm® | intestinal transit rate increases with an increasing dosage | increase intestinal secretion | increase intestinal secretion | ~13 | – | – | – | – |
| NSSNYCCEYCCNPACTGCY (cysteine pairing not given here) [SEQ ID NO:5] | – | – | – | intestinal transit rate increases with an increasing dosage | – | increase intestinal secretion | – | antinociceptive effects in this visceral pain model comparable to the intermediate doses of indomethacin | Significant reductions in writhings | – | – |
| [H]/N=C(/NCCCCC)N/N=C/c1c[nH]c2ccc(OC)cc12 [Zelnorm®, tegaserod] | – | increase gastrointestinal transit rate | – | – | – | – | – | – | – | effective | does not increase intestinal secretion |

Reference: US7772188B2, “Methods and compositions for the treatment of gastrointestinal disorders” (priority 2003, dated 2010)
